Target: insulin receptor isoform B (IR-B) (Homo sapiens, UniProt P06213)
Test: Insulin receptor autophosphorylation assay (In-Cell Western, CHO cells, Example 8B)
Format: cell-based
Parameters: expressed in transfected cells; host or cells: CHO cells
Conditions: relative to human insulin

insulin receptor isoform B (IR-B), sequence (P06213 28-758 limits assumed): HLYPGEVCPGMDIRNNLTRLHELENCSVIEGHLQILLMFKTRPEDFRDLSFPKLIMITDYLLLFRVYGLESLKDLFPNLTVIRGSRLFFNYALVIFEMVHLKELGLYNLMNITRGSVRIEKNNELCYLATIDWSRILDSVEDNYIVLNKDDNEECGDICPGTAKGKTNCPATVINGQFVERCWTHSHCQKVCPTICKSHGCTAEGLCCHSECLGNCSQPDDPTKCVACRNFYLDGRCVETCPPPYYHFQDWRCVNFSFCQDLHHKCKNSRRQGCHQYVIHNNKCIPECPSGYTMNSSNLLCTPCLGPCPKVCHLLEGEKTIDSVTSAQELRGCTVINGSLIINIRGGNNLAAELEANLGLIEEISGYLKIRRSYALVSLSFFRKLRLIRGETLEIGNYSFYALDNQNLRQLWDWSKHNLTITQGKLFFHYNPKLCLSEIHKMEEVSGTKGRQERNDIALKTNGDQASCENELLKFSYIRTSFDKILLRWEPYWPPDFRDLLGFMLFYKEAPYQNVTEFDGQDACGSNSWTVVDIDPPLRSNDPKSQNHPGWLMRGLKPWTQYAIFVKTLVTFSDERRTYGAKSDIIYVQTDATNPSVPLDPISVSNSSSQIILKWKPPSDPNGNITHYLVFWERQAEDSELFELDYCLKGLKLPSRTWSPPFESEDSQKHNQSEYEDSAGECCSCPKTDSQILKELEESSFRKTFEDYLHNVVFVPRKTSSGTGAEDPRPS
insulin receptor isoform B (IR-B), sequence (P06213 763-1382 limits assumed): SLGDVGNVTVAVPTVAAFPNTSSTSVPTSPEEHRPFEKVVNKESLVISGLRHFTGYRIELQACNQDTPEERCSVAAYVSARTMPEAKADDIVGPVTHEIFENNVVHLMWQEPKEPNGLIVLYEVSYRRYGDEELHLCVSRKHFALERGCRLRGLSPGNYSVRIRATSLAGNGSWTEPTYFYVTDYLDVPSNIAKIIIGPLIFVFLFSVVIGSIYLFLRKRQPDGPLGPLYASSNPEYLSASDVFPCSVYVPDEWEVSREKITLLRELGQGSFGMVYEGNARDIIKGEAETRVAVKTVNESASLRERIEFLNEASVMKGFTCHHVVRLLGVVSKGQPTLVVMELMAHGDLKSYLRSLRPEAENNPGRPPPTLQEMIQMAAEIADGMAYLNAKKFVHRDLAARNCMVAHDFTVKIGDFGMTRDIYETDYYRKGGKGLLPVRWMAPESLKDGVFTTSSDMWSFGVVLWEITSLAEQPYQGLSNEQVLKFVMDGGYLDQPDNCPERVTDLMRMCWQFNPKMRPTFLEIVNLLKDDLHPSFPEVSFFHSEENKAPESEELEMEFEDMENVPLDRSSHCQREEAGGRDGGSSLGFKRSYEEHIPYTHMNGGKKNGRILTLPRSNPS

SMILES	autophosphorylation activity
O=C(O)CCCCCCCCCCCCCCOc1ccc(S(=O)(=O)Nc2ncc(C(=O)CCCCCCC(=O)NCCOCCOCC(=O)NCCOCCOCC(=O)O)cn2)cc1 [Binder 6]	0.32
O=C(O)CCCCCCCCCCCCCc1cc(Oc2ccc(S(=O)(=O)Nc3ncc(C(=O)NCCOCCOCC(=O)NCCOCCOCC(=O)O)cn3)cc2)ccc1F [Binder 8]	0.17
O=C(O)CCCCCCCCCCCc1ccc(Oc2ccc(S(=O)(=O)Nc3ccc(C(=O)NCCOCCOCC(=O)NCCOCCOCC(=O)O)cn3)cc2)cc1 [Binder 27]	0.11
O=C(O)CCCCCCCCCCCCCc1cccc(S(=O)(=O)Nc2ncc(C(=O)NCCOCCOCC(=O)NCCOCCOCC(=O)O)cn2)c1 [Binder 29]	0.01

Target: T1, immobilized human serum albumin (Homo sapiens, UniProt P02768)
T1 construct: purchased Chiralpak (Chiraltech) 34712
T1 sequence (P02768 25-609): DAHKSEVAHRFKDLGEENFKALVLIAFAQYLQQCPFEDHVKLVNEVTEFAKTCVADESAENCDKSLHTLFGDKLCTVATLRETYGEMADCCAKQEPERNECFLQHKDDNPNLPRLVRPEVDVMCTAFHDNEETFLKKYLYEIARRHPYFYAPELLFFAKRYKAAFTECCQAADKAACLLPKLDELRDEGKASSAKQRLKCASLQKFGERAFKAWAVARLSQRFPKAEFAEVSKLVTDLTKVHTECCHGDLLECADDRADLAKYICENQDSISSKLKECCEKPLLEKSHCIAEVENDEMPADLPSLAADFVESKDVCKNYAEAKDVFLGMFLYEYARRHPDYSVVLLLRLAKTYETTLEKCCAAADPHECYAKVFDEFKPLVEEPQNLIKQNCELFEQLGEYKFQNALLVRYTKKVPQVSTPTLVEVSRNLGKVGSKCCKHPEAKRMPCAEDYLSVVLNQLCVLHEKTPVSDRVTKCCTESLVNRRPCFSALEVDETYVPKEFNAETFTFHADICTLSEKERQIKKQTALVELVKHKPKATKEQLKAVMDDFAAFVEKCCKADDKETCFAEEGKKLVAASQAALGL
Test: Albumin binding: affinity chromatography on columns with immobilized human serum albumin (net retention time)
Conditions: isolated binders; HSA column 25° C., PBS pH 7.4/isopropanol gradient
Method: In order to identify suitable binder molecules, which when bound to a peptide, such as an insulin, are able to improve the half-life in plasma and to prolong the profile of action, a system was established based on affinity chromatography with serum albumin columns, i.e. columns with immobilized serum albumin.
The net retention time of the binders (samples) was calculated according to the following formula: Net retention time=RetTimeSample−RetTimet0 marker
• Instrument: Waters Alliance 2795/Waters PDA 2996 or Waters H-Class UPLC equipped with a Waters Acquity photodiode-array detector • Software: Waters Empower 3 • Column: […]® HSA 50×4 mm; 5 μm Particle size • Chiraltech Order Numbers: HSA: 34712 • Eluent A: Phosphate Buffer saline (PBS) at pH=7.4 • Gibco PBS pH7.4 (10×) Phosphate Buffered Saline 500 ml; • Order Number: 70011-036 (500 ml) • Eluent B: Isopropanol • Fisher Order Number: A461-1 (10 • Gradient:
• Column temperature: 25° C. • Flow rate: 1.0 ml/min • Detection: λ=220 nm • Injection volume: 20 μL • Sample Conc.: 1 mg/ml insulin solution in PBS for insulin samples • 5 μL of 10 mM DMSO stock solution (DMSO evaporated and re-dissolved in 200 μL i-propanol/water 1:1 v/v) for isolated binder samples (250 μM, 0.2 mg/ml at 800 Da MolWeight) • t0 marker Sodium Nitrate (NaNO3) solution in water, 0.05 mg/ml • Diluted from aqueous 1 mg/ml stock solution (Fluka Order Number: 74246-100ML) • Reported Value Net retention time of sample: RetTime Sample−RetTime t0 marker
Affinity chromatography was carried out i) for insulin conjugates according to Examples 3.3 and 3.4 on a Waters Alliance Separation Module 2695 equipped with a Waters photodiode-array detector 2996 or Waters H-Class UPLC equipped with a Waters Acquity photodiode-array detector and ii) for isolated binders according to Example 2.11 on a Waters Alliance Separation Module 2795 equipped with a Waters photodiode-array detector 2996 or Waters H-Class UPLC equipped with a Waters Acquity photodiode-array detector.
Columns with immobilized human serum albumin (50×4 mm; 5 μm particle size) were purchased from Chiralpak and used for separations.
The columns with immobilized serum albumin were kept at 25° C. during the LC run, UV detection was carried out at 220 nm and injection volume was 20 μL.
The net retention time of the samples was reported according to Net retention time=RetTime Sample−RetTime t0 marker

SMILES	NRT [min] (net retention time on columns with immobilized human serum albumin)
O=C(O)CCCCCCCCCc1ccc(OCc2ccc(S(=O)(=O)Nc3ncc(C(=O)NCCOCCOCC(=O)NCCOCCOCC(=O)O)cn3)cc2)cc1 [Binder 1]	16.76
O=C(O)CCCCCCCCCCCCCCOc1ccc(S(=O)(=O)Nc2ncc(C(=O)NCCOCCOCC(=O)NCCOCCOCC(=O)O)cn2)cc1 [Binder 5]	14.32
O=C(O)CCCCCCCCCCCCCCOc1ccc(S(=O)(=O)Nc2ncc(C(=O)CCCCCCC(=O)NCCOCCOCC(=O)NCCOCCOCC(=O)O)cn2)cc1 [Binder 6]	14.31
O=C(O)CCCCCCCCCCCCCc1cc(Oc2ccc(S(=O)(=O)Nc3ncc(C(=O)NCCOCCOCC(=O)NCCOCCOCC(=O)O)cn3)cc2)ccc1F [Binder 8]	15.29
O=C(O)CCCCCCCCCCCCCCOc1ccc(S(=O)(=O)Nc2ccc(C(=O)NCCOCCOCC(=O)NCCOCCOCC(=O)O)cn2)cc1 [Binder 9]	14.01
O=C(O)CCCCCCCCCCCCCc1cccc(S(=O)(=O)Nc2ccc(C(=O)NCCOCCOCC(=O)NCCOCCOCC(=O)O)cn2)c1 [Binder 21]	16.26
O=C(O)CCCCCCCCCCCc1ccc(Oc2ccc(S(=O)(=O)Nc3ccc(C(=O)NCCOCCOCC(=O)NCCOCCOCC(=O)O)cn3)cc2)cc1 [Binder 27]	15.01
O=C(O)CCCCCCCCCCCCCc1cccc(S(=O)(=O)Nc2ncc(C(=O)NCCOCCOCC(=O)NCCOCCOCC(=O)O)cn2)c1 [Binder 29]	15.66
O=C(O)CCCCCCCCCCCCCCCCCc1cccc(S(=O)(=O)Nc2ncc(C(=O)NCCOCCOCC(=O)NCCOCCOCC(=O)O)cn2)c1 [Binder 41]	14.98
O=C(O)CCCCCCCCCCCCCc1ccc(Oc2ccc(S(=O)(=O)Nc3ccc(C(=O)NCCOCCOCC(=O)NCCOCCOCC(=O)O)cn3)cc2)cc1 [Binder 42]	14.35
O=C(O)CCCCCCCc1ccc(CCOc2ccc(S(=O)(=O)Nc3ccc(C(=O)NCCOCCOCC(=O)NCCOCCOCC(=O)O)cn3)cc2)cc1 [Binder 43]	11.36
O=C(O)CCCCCCCCCCCCCc1ccc(OCc2ccc(S(=O)(=O)Nc3ccc(C(=O)NCCOCCOCC(=O)NCCOCCOCC(=O)O)cn3)cc2)cc1 [Binder 44]	15.04
O=C(O)CCCCCCCCCCCCCCCOc1ccc(S(=O)(=O)Nc2ncc(C(=O)NCCOCCOCC(=O)NCCOCCOCC(=O)O)c(C(F)(F)F)n2)cc1 [Binder 45]	13.8
O=C(O)CCCCCCCc1ccc(CCOc2ccc(S(=O)(=O)Nc3ccc(C(=O)NCCOCCOCC(=O)NCCOCCOCC(=O)O)cn3)cc2)cc1 [Binder 46]	14.48
Cc1nc(NS(=O)(=O)c2ccc(OCCCCCCCCCCCCCCCC(=O)O)cc2)ncc1C(=O)NCCOCCOCC(=O)NCCOCCOCC(=O)O [Binder 47]	13.73
O=C(O)CCCCCCCCCCCCCCCOc1ccc(S(=O)(=O)Nc2ncc(C(=O)NCCOCCOCC(=O)NCCOCCOCC(=O)O)cn2)cc1Cl [Binder 50]	13.74

SMILES	NRT [min] (net retention time on columns with immobilized human serum albumin)
O=C(O)CCCCCCCCCCCCCCCOc1ccc(S(=O)(=O)Nc2ccc(C(=O)NCCOCCOCC(=O)NCCOCCOCC(=O)O)cn2)cc1Cl [Binder 51]	13.59
O=C(O)CCCCCCCCCc1ccc(Oc2ccc(S(=O)(=O)Nc3ncc(C(=O)NCCOCCOCC(=O)NCCOCCOCC(=O)O)cn3)cc2)cc1F [Binder 52]	14.56
O=C(O)CCCCCCCCCCCc1ccc(S(=O)(=O)Nc2ncc(C(=O)NCCOCCOCC(=O)NCCOCCOCC(=O)O)cn2)cc1 [Binder 53]	12.29
O=C(O)CCCCCCCCCCCCCCCc1ccc(S(=O)(=O)Nc2ncc(C(=O)NCCOCCOCC(=O)NCCOCCOCC(=O)O)cn2)cc1 [Binder 54]	15.19
O=C(O)CCCCCCCCCCCCCCCCCc1cccc(S(=O)(=O)Nc2ncc(C(=O)NCCOCCOCC(=O)NCCOCCOCC(=O)O)cn2)c1 [Binder 55]	15.01
O=C(O)CCCCCCCCCCCCCCCc1ccc(S(=O)(=O)Nc2ccc(C(=O)NCCOCCOCC(=O)NCCOCCOCC(=O)O)cn2)cc1 [Binder 59]	15.47
O=C(O)CCCCCCCc1cc(Oc2ccc(S(=O)(=O)Nc3ncc(C(=O)NCCOCCOCC(=O)NCCOCCOCC(=O)O)cn3)cc2)ccc1F [Binder 63]	13.42
O=C(O)CCCCCCCCCCCCCc1ccc(OCc2ccc(S(=O)(=O)Nc3ncc(C(=O)NCCOCCOCC(=O)NCCOCCOCC(=O)O)cn3)cc2)cc1 [Binder 64]	14.78
O=C(O)CCCCCCCCCCCc1cccc(S(=O)(=O)Nc2ccc(C(=O)NCCOCCOCC(=O)NCCOCCOCC(=O)O)cn2)c1 [Binder 65]	12.21
O=C(O)CCCCCCCCCc1ccc(S(=O)(=O)Nc2ncc(C(=O)NCCOCCOCC(=O)NCCOCCOCC(=O)O)cn2)cc1 [Binder 66]	9.87
O=C(O)CCCCCCCCCc1ccc(S(=O)(=O)Nc2ccc(C(=O)NCCOCCOCC(=O)NCCOCCOCC(=O)O)cn2)cc1 [Binder 67]	10.99
O=C(O)CCCCCCCCCCCCCCCOc1cccc(S(=O)(=O)Nc2ncc(C(=O)NCCOCCOCC(=O)NCCOCCOCC(=O)O)cn2)c1 [Binder 68]	14.74
O=C(O)CCCCCCCCCCCCCCCCCOc1ccc(S(=O)(=O)Nc2ncc(C(=O)NCCOCCOCC(=O)NCCOCCOCC(=O)O)cn2)cc1 [Binder 69]	14.24
O=C(O)CCCCCCCCCCCCCCCCCOc1ccc(S(=O)(=O)Nc2ccc(C(=O)NCCOCCOCC(=O)NCCOCCOCC(=O)O)cn2)cc1 [Binder 70]	14.26
O=C(O)CCCCCCCCCCCCCCCCCCCOc1ccc(S(=O)(=O)Nc2ccc(C(=O)NCCOCCOCC(=O)NCCOCCOCC(=O)O)cn2)cc1 [Binder 71]	14.42
O=C(O)CCCCCCCCCCCCCCCOc1cc(Cl)c(S(=O)(=O)Nc2ncc(C(=O)NCCOCCOCC(=O)NCCOCCOCC(=O)O)cn2)cc1Cl [Binder 72]	13.96
